According to patent publication US10959432B2, “Microbiocidal oxadiazole derivatives” (Syngenta Participations AG, priority 2016, dated 2021):

How the values were obtained:
[1] = system: Puccinia recondita f. sp. tritici; test: Fungicidal activity against Puccinia recondita f. sp. tritici / wheat / leaf disc curative (brown rust); format: in vivo; conditions: foliar, 200 ppm in the applied formulation, wheat leaf segments cv. Kanzler, curative (applied 1 day after inoculation), assessed 6 to 8 days after application, read-out: disease control compared to untreated control leaf disks
Outline: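 Curative test: compound, diluted from DMSO stock into water, applied one day after spore inoculation of wheat (cv. Kanzler) leaf segments kept on agar in darkness at 19° C. and 75% RH. Climate-cabinet incubation (19° C., 75% RH, 12 h photoperiod); disease control relative to untreated read 6–8 days post-application.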

[2] = system: Uromyces viciae-fabae; test: Fungicidal activity against Uromyces viciae-fabae / field bean / leaf disc preventative (faba-bean rust); format: in vivo; conditions: foliar, 288 h, 100 ppm in the applied formulation, field bean leaf discs, preventative (inoculated two hours after application), assessed 12 days after application, read-out: disease control compared to untreated control leaf discs
Description: Leaf disks or leaf segments of various plant species are cut from plants grown in a greenhouse. The cut leaf disks or segments are placed in multiwell plates (24-well format) onto water agar. The leaf disks are sprayed with a test solution before (preventative) or after (curative) inoculation. Compounds to be tested are prepared as DMSO solutions (max. 10 mg/ml) which are diluted to the appropriate concentration with 0.025% Tween20 just before spraying. The inoculated leaf disks or segments are incubated under defined conditions (temperature, relative humidity, light, etc.) according to the respective test system. A single evaluation of disease level is carried out 3 to 14 days after inoculation, depending on the pathosystem. Percent disease control relative to the untreated check leaf disks or segments is then calculated. General Examples of Liquid Culture Tests in Well Plates:
Example 5: Fungicidal Activity Against Uromyces viciae-fabae/Field Bean/Leaf Disc Preventative (Faba-Bean Rust)
Field bean leaf discs are placed on water agar in multiwell plates (96-well format) and 10 μl of the formulated test compound diluted in acetone and a spreader pipetted onto the leaf disc. Two hours after application leaf discs are inoculated by spraying a spore suspension on the lower leaf surface. The leaf discs are incubated in a climate cabinet at 22° C. with 18 hour day and 70% relative humidity. The activity of a compound is assessed as percent disease control compared to untreated when an appropriate level of disease damage appears in untreated check leaf disks (12 days after application).
The following compounds at 100 ppm in the applied formulation give at least 80% disease control in this test when compared to untreated control leaf discs under the same conditions, which show extensive disease development.

[3] = system: Phakopsora pachyrhizi; test: Fungicidal activity against Phakopsora pachyrhizi / soybean / leaf disc preventative (Asian soybean rust); format: in vivo; conditions: foliar, 200 ppm in the applied formulation, soybean leaf disks, preventative (inoculated one day after application), assessed 12 to 14 days after application, read-out: disease control compared to untreated control leaf disks
Outline: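 Preventative test: compound applied to soybean leaf discs a day before spore inoculation of the lower surface. Discs kept at 20° C and 75% rh, first 24-36 h in darkness, then under 12 h light/day; disease control relative to untreated discs rated 12 to 14 days post-application.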

[4] = system: Glomerella laqenarium (Colletotrichum lagenarium); test: Fungicidal activity against Glomerella lagenarium (Colletotrichum lagenarium) liquid culture / cucumber / preventative (anthracnose); format: cell-based; conditions: Colletotrichum orbiculare; 20 ppm in the applied formulation; liquid culture in PDB, 24° C., 3 to 4 days after application; read-out: disease control compared to untreated control (inhibition of growth measured photometrically)
Outline: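 Test compound, applied from DMSO solution, is combined with PDB containing conidia taken from cryogenic storage. After 3–4 days at 24 °C, growth is measured photometrically and antifungal activity expressed as percent relative to untreated control.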

[5] = system: Puccinia recondita f. sp. tritici; test: Fungicidal activity against Puccinia recondita f. sp. tritici / wheat / leaf disc preventative (brown rust); format: in vivo; conditions: foliar, 200 ppm in the applied formulation, wheat leaf segments cv. Kanzler, preventative (inoculated 1 day after application), assessed 7 to 9 days after application, read-out: disease control compared to untreated control leaf disks
Outline: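 Preventative leaf-segment test: compound sprayed at 200 ppm onto wheat (cv. Kanzler) segments, brown rust spores applied 1 day after. Kept at 19C and 75% rh under 12 h light/dark cycles; disease control versus untreated check read 7 to 9 days post-application.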

O=C(NCC1COCCO1)c1ccc(-c2noc(C(F)(F)F)n2)cc1 (centres unmarked) [Compound 1a.2, N-(1,4-dioxan-2-ylmethyl)-4-[5-(trifluoromethyl)-1,2,4-oxadiazol-3-yl]benzamide]
≥ 80%: pest or weed control at 200 ppm [1] | pest or weed control at 100 ppm [2] | pest or weed control at 200 ppm [3] | inhibition at 20 ppm [4] | pest or weed control at 200 ppm [5]

CON1CCC(N(C)C(=O)c2ccc(-c3noc(C(F)(F)F)n3)cc2)CC1 [Compound 1a.3, N-(1-methoxy-4-piperidyl)-N-methyl-4-[5-(trifluoromethyl)-1,2,4-oxadiazol-3-yl]benzamide]
≥ 80%: pest or weed control at 200 ppm [1] | pest or weed control at 100 ppm [2] | inhibition at 20 ppm [4] | pest or weed control at 200 ppm [5]

CCN(C(=O)c1ccc(-c2noc(C(F)(F)F)n2)cc1)C1CCN(OC)CC1 [Compound 1a.4, N-ethyl-N-(1-methoxy-4-piperidyl)-4-[5-(trifluoromethyl)-1,2,4-oxadiazol-3-yl]benzamide]
≥ 80%: pest or weed control at 200 ppm [1] | pest or weed control at 100 ppm [2] | inhibition at 20 ppm [4] | pest or weed control at 200 ppm [5]

CCCN(C(=O)c1ccc(-c2noc(C(F)(F)F)n2)cc1)C1CCN(OC)CC1 [Compound 1a.5, N-(1-methoxy-4-piperidyl)-N-propyl-4-[5-(trifluoromethyl)-1,2,4-oxadiazol-3-yl]benzamide]
≥ 80%: pest or weed control at 200 ppm [1] | pest or weed control at 100 ppm [2] | inhibition at 20 ppm [4]

CC1(C)OCC(CNC(=O)c2ccc(-c3noc(C(F)(F)F)n3)cc2F)O1 (centres unmarked) [Compound 1b.6, N-[(2,2-dimethyl-1,3-dioxolan-4-yl)methyl]-2-fluoro-4-[5-(trifluoromethyl)-1,2,4-oxadiazol-3-yl]benzamide]
≥ 80%: pest or weed control at 200 ppm [1] | pest or weed control at 100 ppm [2] | pest or weed control at 200 ppm [3] | pest or weed control at 200 ppm [5]

O=C(NCC1CCC1)c1ccc(-c2noc(C(F)(F)F)n2)cc1 [Compound 2a.3, N-(cyclobutylmethyl)-4-[5-(trifluoromethyl)-1,2,4-oxadiazol-3-yl]benzamide]
≥ 80%: pest or weed control at 200 ppm [1] | pest or weed control at 100 ppm [2] | pest or weed control at 200 ppm [3] | pest or weed control at 200 ppm [5]

CC1(NC(=O)c2ccc(-c3noc(C(F)(F)F)n3)cc2)CCC1 [Compound 2a.4, N-(1-methylcyclobutyl)-4-[5-(trifluoromethyl)-1,2,4-oxadiazol-3-yl]benzamide]
≥ 80%: pest or weed control at 200 ppm [1] | pest or weed control at 100 ppm [2] | pest or weed control at 200 ppm [3] | pest or weed control at 200 ppm [5]

O=C(NCC1CCC1)c1ccc(-c2noc(C(F)(F)F)n2)cc1F [Compound 2b.11, N-(cyclobutylmethyl)-2-fluoro-4-[5-(trifluoromethyl)-1,2,4-oxadiazol-3-yl]benzamide]
≥ 80%: pest or weed control at 200 ppm [1] | pest or weed control at 100 ppm [2] | pest or weed control at 200 ppm [3] | pest or weed control at 200 ppm [5]

CC1(NC(=O)c2ccc(-c3noc(C(F)(F)F)n3)cc2F)CCC1 [Compound 2b.12, 2-fluoro-N-(1-methylcyclobutyl)-4-[5-(trifluoromethyl)-1,2,4-oxadiazol-3-yl]benzamide]
≥ 80%: pest or weed control at 200 ppm [1] | pest or weed control at 100 ppm [2] | pest or weed control at 200 ppm [3] | pest or weed control at 200 ppm [5]

O=C(NC1CCCC1(F)F)c1ccc(-c2noc(C(F)(F)F)n2)cc1F (centres unmarked) [Compound 2b.17, N-(2,2-difluorocyclopentyl)-2-fluoro-4-[5-(trifluoromethyl)-1,2,4-oxadiazol-3-yl]benzamide]
≥ 80%: pest or weed control at 200 ppm [1] | pest or weed control at 100 ppm [2] | pest or weed control at 200 ppm [3] | pest or weed control at 200 ppm [5]

Cc1ccsc1CN(C)C(=O)c1ccc(-c2noc(C(F)(F)F)n2)cc1F [Compound 5b.3, 2-fluoro-N-methyl-N-[(3-methyl-2-thienyl)methyl]-4-[5-(trifluoromethyl)-1,2,4-oxadiazol-3-yl]benzamide]
≥ 80%: pest or weed control at 200 ppm [1] | pest or weed control at 100 ppm [2] | pest or weed control at 200 ppm [3] | inhibition at 20 ppm [4]
